Earlier results, collected in patent US20070027075A1, “Compositions and methods for targeted drug delivery” (priority 2003, published 2007).

Biological target: prostate-specific antigen (Homo sapiens, UniProt P07288)
Settings: PSA

Chain of prostate-specific antigen (P07288 25-261): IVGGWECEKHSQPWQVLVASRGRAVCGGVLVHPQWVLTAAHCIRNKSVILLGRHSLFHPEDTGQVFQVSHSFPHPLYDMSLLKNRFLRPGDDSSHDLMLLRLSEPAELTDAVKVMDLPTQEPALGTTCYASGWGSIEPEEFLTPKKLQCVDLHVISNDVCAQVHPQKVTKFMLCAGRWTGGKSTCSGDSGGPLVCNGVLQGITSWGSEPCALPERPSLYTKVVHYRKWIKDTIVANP

In the case of CVFTSDYAFC, the Kd is listed as 8 µM.
